Key:
[1] = molecular target: T1, unphosphorylated c-FMS kinase (uFMS, Seq. ID no. 1) (Homo sapiens, UniProt P07333); assay: uFMS kinase assay (ADP production coupled to pyruvate kinase/lactate dehydrogenase); assay type: biochemical; settings: enzymatic assay, ATP 500 μM
T1 construct: purchased Millipore
T1 sequence (P07333 538-972): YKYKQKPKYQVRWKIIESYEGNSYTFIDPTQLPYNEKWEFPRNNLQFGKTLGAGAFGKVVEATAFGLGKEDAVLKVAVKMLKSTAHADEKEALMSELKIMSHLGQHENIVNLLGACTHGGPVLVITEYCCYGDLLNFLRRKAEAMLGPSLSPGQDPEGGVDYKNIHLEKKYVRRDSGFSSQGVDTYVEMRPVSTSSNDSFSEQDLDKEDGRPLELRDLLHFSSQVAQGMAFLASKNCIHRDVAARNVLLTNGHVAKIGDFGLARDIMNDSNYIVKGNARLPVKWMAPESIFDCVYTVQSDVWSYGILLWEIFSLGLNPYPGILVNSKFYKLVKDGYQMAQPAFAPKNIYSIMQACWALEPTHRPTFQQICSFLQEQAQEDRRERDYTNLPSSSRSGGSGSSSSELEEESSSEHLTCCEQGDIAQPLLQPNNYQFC
Experimental: uFMS Kinase (Seq. ID No. 1) Assay
In this assay, the oxidation of NADH (thus the decrease at A340 nm) was continuously monitored spectrophometrically. The reaction mixture (100 μL) contained FMS (purchased from Millipore) (10 nM), polyE4Y (1 mg/mL), MgCl2 (10 mM), pyruvate kinase (4 units), lactate dehydrogenase (0.7 units), phosphoenol pyruvate (1 mM), NADH (0.28 mM) and ATP (500 μM) in 90 mM Tris buffer containing 0.2% octyl-glucoside and 1% DMSO, pH 7.5. The inhibition reaction was started by mixing serial diluted test compound with the above reaction mixture. The absorption at 340 nm was monitored continuously for 4 hours at 30° C. on Synergy 2 plate reader. The reaction rate was calculated using the 3 to 4 h time frame. Percent inhibition was obtained by comparison of reaction rate with that of a control (i.e. in the absence of test compound). IC50 values were calculated from a series of percent inhibition values determined at a range of inhibitor concentrations using software routines as implemented in the GraphPad Prism software package.

[2] = molecular target: T2, unphosphorylated c-KIT kinase (uKIT, Seq. ID no. 2) (Homo sapiens, UniProt P10721); assay: uKit kinase assay (ADP production coupled to pyruvate kinase/lactate dehydrogenase); assay type: biochemical; settings: enzymatic assay, ATP 2000 μM; read-out: uKIT
T2 construct: uKit with N-terminal GST fusion used for screening
Experimental: In this assay, the oxidation of NADH (thus the decrease at A340 nm) was continuously monitored spectrophometrically. […] The inhibition reaction was started by mixing serial diluted test compound with the above reaction mixture. The absorption at 340 nm was monitored continuously for 4 hours at 30° C. on Synergy 2 plate reader (BioTech).

[3] = molecular target: T3, unphosphorylated PDGFRβ kinase (uPDGFRβ, Seq. ID No. 3) (Homo sapiens, UniProt P09619); assay: uPDGFRβ kinase assay (ADP production coupled to pyruvate kinase/lactate dehydrogenase); assay type: biochemical; settings: enzymatic assay, ATP 500 μM
T3 construct: purchased DeCode
Experimental: Unphosphorylated […]β) Kinase (Seq. ID No. 3) Assay Activity of unphosphorylated PDGFRβ kinase ([…] No. 3) was determined by following the production of ADP from the kinase reaction with ATP and poly E4Y as substrates through coupling with the pyruvate kinase/lactate dehydrogenase system (e.g., Schindler et al. Science (2000) 289: 1938-1942). In this assay, the oxidation of NADH (thus the decrease at A340 nm) was continuously monitored spectrophometrically. The reaction mixture (100 μL) contained PDGFRβ (DeCode, 15.7 nM), polyE4Y (2.5 mg/mL), MgCl2 (10 mM), pyruvate kinase (4 units), lactate dehydrogenase (0.7 units), phosphoenol pyruvate (1 mM) and NADH (0.28 mM) and ATP (500 μM) in a 90 mM Tris buffer containing 0.2% octyl-glucoside and 1% DMSO, at pH 7.5. The inhibition reaction was started by mixing serial diluted test compound with the above reaction mixture. The absorption at 340 nm was monitored continuously for 4 h at 30° C. on a Polarstar Optima or Synergy 2 plate reader. The reaction rate was calculated using the 1.5 to 2.5 h time frame. Percent inhibition was obtained by comparison of reaction rate with that of a control (i.e. with no test compound). IC50 values were calculated from a series of percent inhibition values determined at a range of inhibitor concentrations using software routines as implemented in the GraphPad Prism software package.

[4] = tested on: M-NFS-60 cells; assay: M-NFS-60 cell proliferation assay (resazurin); assay type: cell-based; settings: 67 h incubation
Experimental: M-NFS-60 cells (catalog #CRL-1838) were obtained from the American Type Culture Collection (ATCC, Manassas, Va.). Briefly, cells were grown in suspension in RPMI 1640 medium supplemented with 10% characterized fetal bovine serum (Invitrogen, Carlsbad, Calif.), 0.05 mM 2-mercaptoethanol, and 20 ng/mL mouse recombinant macrophage colony stimulating factor (M-CSF) at 37° C., 5% CO2, and 95% humidity. Cells were allowed to expand until reaching saturation at which point they were subcultured or harvested for assay use.
M-NFS-60 Cell Proliferation Assay
A serial dilution of test compound was dispensed into a 384-well black clear bottom plate (Corning, Corning, N.Y.). Two thousand five hundred cells were added per well in 50 μL complete growth medium. Plates were incubated for 67 h at 37° C., 5% CO2, and 95% humidity. At the end of the incubation period 10 μL of a 440 µM solution of resazurin (Sigma, St. Louis, Mo.) in PBS was added to each well and incubated for an additional 5 h at 37° C., 5% CO2, and 95% humidity. Plates were read on a Synergy2 reader (Biotek, Winooski, Vt.) using an excitation of 540 nm and an emission of 600 nm. IC50 values were calculated from a series of percent inhibition values determined at a range of inhibitor concentrations using software routines as implemented in the GraphPad Prism software package.

[5] = tested on: osteoclast precursors; assay: Osteoclast tartrate-resistant acid phosphatase assay; assay type: cell-based; settings: tartrate-resistant acid phosphatase activity, RANKL and M-CSF, 7-14 days
Experimental: Osteoclast Tartrate-Resistant Acid Phosphatase Assay
A serial dilution of test compound was dispensed into a 384-well black clear bottom plate (Nalge Nunc International, Rochester, N.Y.). Compound was diluted by the addition of DMEM media supplemented with 10% characterized fetal bovine serum (Invitrogen, Carlsbad, Calif.). Diluted compound was transferred to a 384-well black clear bottom plate. Two-thousand five hundred osteoclast precursors (Lonza, Walkersville, Md.) were added per well in growth media containing Receptor Activator of Nuclear Factor Kappa-beta ligand (RANKL) and M-CSF (R&D Systems, Minneapolis, Minn.). Plates were incubated for 7-14 days at 37 degrees Celsius, 5% CO2, and 95% humidity to allow differentiation of osteoclast precursors. At the end of the incubation period, 10 μL of supernatant from each well was transferred to a clear 384-well plate. Tartrate-resistant acid phosphatase activity in the supernatant samples was determined using an acid phosphatase assay kit (Sigma, St. Louis, Mo.). Absorbance was measured at 550 nm using a plate reader. Data was analyzed using Prism software (Graphpad, San Diego, Calif.) to calculate IC50 values.

[6] = molecular target: T4, phospho-FMS in THP-1 cells (Homo sapiens, UniProt P07333); assay: Phospho-FMS ELISA assay in THP-1 cells; assay type: cell-based; settings: 4 hours compound, M-CSF stimulation 5 minutes, read-out: pFMS inhibition in THP-1 cells
T4 construct: endogenous in cells; host or cells: THP-1 (ATCC TIB-202)
Experimental: Cells were allowed to expand until reaching 70-95% confluency at which point they were subcultured or harvested for assay use.
In a separate 96 well black clear bottom plate, one hundred and fifty thousand THP-1 cells were added per well in 100 μL in assay medium. Fifty microliters of diluted compound was then added to the cells. Plates were incubated for 4 hours at 37 degrees Celsius, 5% CO2, 95% humidity. […] Lysates were prepared and used to perform the phospho-FMS ELISA as described by the manufacturer (catalog #DYC3268, R & D Systems, Minneapolis, Minn.). GraphPad Prism was used to calculate IC50 values obtained from data generated from the ELISA assay.

T2 sequence (P10721 with tags, fused parts or gaps): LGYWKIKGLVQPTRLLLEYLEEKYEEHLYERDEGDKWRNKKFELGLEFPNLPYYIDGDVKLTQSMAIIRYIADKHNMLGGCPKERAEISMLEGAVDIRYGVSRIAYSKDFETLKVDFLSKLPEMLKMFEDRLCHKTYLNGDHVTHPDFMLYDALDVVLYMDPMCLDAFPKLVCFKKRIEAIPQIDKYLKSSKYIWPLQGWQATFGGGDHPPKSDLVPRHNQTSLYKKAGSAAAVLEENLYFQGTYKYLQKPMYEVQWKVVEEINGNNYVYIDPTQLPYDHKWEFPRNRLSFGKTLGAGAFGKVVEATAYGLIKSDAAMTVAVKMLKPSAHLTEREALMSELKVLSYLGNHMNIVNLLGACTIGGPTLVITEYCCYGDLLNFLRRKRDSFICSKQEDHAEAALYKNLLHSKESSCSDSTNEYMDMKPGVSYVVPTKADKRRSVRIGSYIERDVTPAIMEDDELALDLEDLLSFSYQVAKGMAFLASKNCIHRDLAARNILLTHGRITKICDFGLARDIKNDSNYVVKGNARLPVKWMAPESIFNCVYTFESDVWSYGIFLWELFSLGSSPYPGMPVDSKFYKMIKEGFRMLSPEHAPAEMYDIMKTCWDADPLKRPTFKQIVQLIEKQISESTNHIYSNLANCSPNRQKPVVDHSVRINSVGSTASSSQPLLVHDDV
T4 sequence (P07333 20-972): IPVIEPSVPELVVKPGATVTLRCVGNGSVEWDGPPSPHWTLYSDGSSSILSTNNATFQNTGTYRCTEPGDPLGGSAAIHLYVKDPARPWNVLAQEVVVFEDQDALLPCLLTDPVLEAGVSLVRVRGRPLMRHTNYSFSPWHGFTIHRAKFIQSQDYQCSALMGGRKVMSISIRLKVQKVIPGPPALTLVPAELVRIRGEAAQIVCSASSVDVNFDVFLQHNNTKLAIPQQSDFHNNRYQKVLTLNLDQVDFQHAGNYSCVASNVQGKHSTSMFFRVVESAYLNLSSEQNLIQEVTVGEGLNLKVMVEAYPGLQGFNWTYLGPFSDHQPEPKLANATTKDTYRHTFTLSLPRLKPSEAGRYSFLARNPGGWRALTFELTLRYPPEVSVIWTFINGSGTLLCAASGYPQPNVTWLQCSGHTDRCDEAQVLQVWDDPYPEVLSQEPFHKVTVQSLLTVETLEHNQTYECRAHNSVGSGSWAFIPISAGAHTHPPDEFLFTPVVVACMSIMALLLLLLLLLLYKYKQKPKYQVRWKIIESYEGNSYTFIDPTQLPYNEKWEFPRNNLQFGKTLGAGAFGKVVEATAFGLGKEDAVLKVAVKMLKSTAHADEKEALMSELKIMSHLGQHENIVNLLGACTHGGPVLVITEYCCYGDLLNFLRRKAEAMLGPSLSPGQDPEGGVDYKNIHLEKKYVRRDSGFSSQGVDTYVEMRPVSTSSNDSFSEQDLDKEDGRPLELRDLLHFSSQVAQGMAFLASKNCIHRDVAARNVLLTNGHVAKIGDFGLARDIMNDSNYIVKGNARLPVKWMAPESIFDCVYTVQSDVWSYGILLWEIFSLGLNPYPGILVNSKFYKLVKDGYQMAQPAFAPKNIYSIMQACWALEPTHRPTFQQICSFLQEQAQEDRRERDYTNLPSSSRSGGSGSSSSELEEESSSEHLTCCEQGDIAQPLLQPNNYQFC
T3 sequence (P09619 557-1106): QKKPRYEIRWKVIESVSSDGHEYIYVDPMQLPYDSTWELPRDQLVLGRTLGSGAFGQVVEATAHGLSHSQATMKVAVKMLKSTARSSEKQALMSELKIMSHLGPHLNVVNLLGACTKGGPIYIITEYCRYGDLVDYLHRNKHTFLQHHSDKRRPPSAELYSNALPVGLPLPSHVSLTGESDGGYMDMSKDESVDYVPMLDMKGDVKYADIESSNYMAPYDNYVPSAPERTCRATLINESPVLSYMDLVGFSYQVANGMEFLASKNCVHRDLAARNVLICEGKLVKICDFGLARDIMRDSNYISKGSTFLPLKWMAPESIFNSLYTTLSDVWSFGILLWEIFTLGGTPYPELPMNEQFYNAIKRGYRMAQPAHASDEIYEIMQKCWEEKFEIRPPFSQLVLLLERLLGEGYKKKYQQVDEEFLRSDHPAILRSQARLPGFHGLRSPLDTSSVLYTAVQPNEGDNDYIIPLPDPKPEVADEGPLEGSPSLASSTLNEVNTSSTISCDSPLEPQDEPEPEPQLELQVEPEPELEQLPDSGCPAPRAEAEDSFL

SMILES	IC50 [1] [nM]	IC50 [2] [nM]	IC50 [3] [nM]	IC50 [4] [nM]	IC50 [5] [nM]	IC50 [6] [nM]
Cc1nc(-c2cnc(NCC(C)(C)C)[nH]c2=O)ccc1Oc1ccnc(-c2cnn(C)c2)c1 [Example 29, 5-(6-methyl-5-((2-(1-methyl-1H-pyrazol-4-yl)pyridin-4-yl)oxy)pyridin-2-yl)-2-(neopentylamino)pyrimidin-4(3H)-one]	< 10	10 to 100	100 to 1000	10 to 100	10 to 100	10 to 100
Cc1nc(-c2cnc(N3CCC(F)(F)C3)[nH]c2=O)ccc1Oc1ccnc(-c2cnn(C)c2)c1 [Example 30, 2-(3,3-difluoropyrrolidin-1-yl)-5-(6-methyl-5-((2-(1-methyl-1H-pyrazol-4-yl)pyridin-4-yl)oxy)pyridin-2-yl)pyrimidin-4(3H)-one]	10 to 100	> 1000	> 1000	100 to 1000	10 to 100	10 to 100
CCNc1ncc(-c2ccc(Oc3ccnc(-c4cnn(C)c4)c3)c(C)n2)c(=O)n1C [Example 25, 2-(ethylamino)-3-methyl-5-(6-methyl-5-((2-(1-methyl-1H-pyrazol-4-yl)pyridin-4-yl)oxy)pyridin-2-yl)pyrimidin-4(3H)-one]	10 to 100	100 to 1000	> 1000	10 to 100	10 to 100	10 to 100
COC[C@@H](C)Nc1ncc(-c2ccc(Oc3ccnc(-c4cnn(C)c4)c3)c(C)n2)c(=O)[nH]1 [Example 22, (R)-2-((1-methoxypropan-2-yl)amino)-5-(6-methyl-5-((2-(1-methyl-1H-pyrazol-4-yl)pyridin-4-yl)oxy)pyridin-2-yl)pyrimidin-4(3H)-one]	10 to 100	> 1000	> 1000	10 to 100	< 10	100 to 1000
Cc1nc(-c2cnc(N3CC[C@H](N(C)C)C3)[nH]c2=O)ccc1Oc1ccnc(-c2cnn(C)c2)c1 [Example 24, (S)-2-(3-(dimethylamino)pyrrolidin-1-yl)-5-(6-methyl-5-((2-(1-methyl-1H-pyrazol-4-yl)pyridin-4-yl)oxy)pyridin-2-yl)pyrimidin-4(3H)-one]	100 to 1000	> 1000	> 1000	100 to 1000	100 to 1000	–
Cc1nc(-c2cnc(NC(C)(C)C)[nH]c2=O)ccc1Oc1ccnc(-c2cnn(C)c2)c1 [Example 28, 2-(tert-butylamino)-5-(6-methyl-5-((2-(1-methyl-1H-pyrazol-4-yl)pyridin-4-yl)oxy)pyridin-2-yl)pyrimidin-4(3H)-one]	< 10	10 to 100	10 to 100	10 to 100	10 to 100	10 to 100
Cc1nc(-c2cnc(N3CCCC3)n(C)c2=O)ccc1Oc1ccnc(-c2cnn(C)c2)c1 [Example 16, 3-methyl-5-(6-methyl-5-((2-(1-methyl-1H-pyrazol-4-yl)pyridin-4-yl)oxy)pyridin-2-yl)-2-(pyrrolidin-1-yl)pyrimidin-4(3H)-one]	–	> 1000	100 to 1000	< 10	< 10	–
COC[C@H]1CCCN1c1ncc(-c2ccc(Oc3ccnc(-c4cnn(C)c4)c3)c(C)n2)c(=O)[nH]1 [Example 23, (R)-2-(2-(methoxymethyl)pyrrolidin-1-yl)-5-(6-methyl-5-((2-(1-methyl-1H-pyrazol-4-yl)pyridin-4-yl)oxy)pyridin-2-yl)pyrimidin-4(3H)-one]	10 to 100	> 1000	> 1000	10 to 100	10 to 100	–
COCCNc1ncc(-c2ccc(Oc3ccnc(-c4cnn(C)c4)c3)c(C)n2)c(=O)[nH]1 [Example 6, 2-((2-methoxyethyl)amino)-5-(6-methyl-5-((2-(1-methyl-1H-pyrazol-4-yl)pyridin-4-yl)oxy)pyridin-2-yl)pyrimidin-4(3H)-one]	–	100 to 1000	> 1000	100 to 1000	10 to 100	–

Source: patent publication US9181223B2, “2-aminopyrimidin-6-ones and analogs exhibiting anti-cancer and anti-proliferative activities” (Deciphera Pharmaceuticals, LLC, priority 2013, dated 2015)
